PMC3095212 (Journal of immunology (Baltimore, Md. : 1950), 2011)
Residues, ends and D or L forms follow the SMILES beside them.

Tests used:
CD8-negative 2C T cells = experiment: T cell stimulation/antagonism, secreted IL-2; type: cell-based, mouse; conditions: 24 h
[1] = tested on: CD8-negative m33 Y48βA T cells; experiment: T cell stimulation/antagonism, secreted IL-2; type: cell-based, mouse; conditions: 24 h
CD8-negative m33 T cells = conditions: 24 h
K^b = conditions: ref [28]; cited from earlier work

CC(C)C[C@H](NC(=O)[C@H](CC(=O)O)NC(=O)[C@H](Cc1ccccc1)NC(=O)[C@@H]1CCCN1C(=O)[C@H](CCCNC(=N)N)NC(=O)[C@@H]1CCCN1C(=O)[C@H](CO)NC(=O)[C@H](CC(C)C)NC(=O)[C@@H](N)CCC(N)=O)C(=O)O [QL9 F5R] (H-QLSPRPFDL-OH)
IC50 (CD8-negative 2C T cells): 0.44 ± 0.27 nM | IC50 [1]: 4.7 ± 0.4 nM

CC[C@H](C)[C@H](NC(=O)[C@@H](N)CO)C(=O)N[C@@H](Cc1ccc(O)cc1)C(=O)N[C@@H](C)C(=O)N[C@@H](Cc1ccc(O)cc1)C(=O)N[C@@H](Cc1ccc(O)cc1)C(=O)NCC(=O)N[C@@H](CC(C)C)C(=O)O [SIY R4A] (H-SIYAYYGL-OH)
IC50 (CD8-negative m33 T cells): 0.15 nM

SIINFEKL [OVA]
half-life of OVA/K^b (K^b): 23 h
